Assay results taken from patent US12624068B2, “Exon skipping by peptide nucleic acid derivatives” (OliPass Corporation, priority 2016, dated 2026).

Legend:
mouse TYR pre-mRNA = experiment: TYR nested PCR for exon skipping in B16F10 cells; format: cell-based; details: 1 to 1,000 aM, 5 hours
Protocol: “TYR-ASO 4” was evaluated for its ability to induce the skipping of the mouse TYR exon 2 in B16F10 melanoma cells as follows. “TYR-ASO 4” may serve as a good surrogate compound for “TYR-ASO 1” which is fully complementary to the human TYR pre-mRNA. [Cell Culture & ASO Treatment] B16F10 mouse melanoma cells (Cat. Number CRL-6475, ATCC) were maintained in DMEM (Dulbecco's modified Eagle's essential minimum medium) supplemented with 10% FBS, 1% streptomycin/penicillin, and 0.01 mg/ml bovine insulin. B16F10 cells grown in 60 mm culture dish containing 5 mL DMEM were incubated for 5 hours with “TYR-ASO 4” at 0 (negative control), 1, 10, 100 or 1000 aM. [RNA Extraction & cDNA Synthesis by One-step PCR] Total RNA was extracted using “Universal RNA Extraction Kit” (Cat. Number 9767, Takara) according to the manufacturer's instructions. […] NO: 142); and TYR-exon 4_reverse: (5'→3') […] [Nested PCR Amplification] […] NO: 144); and TYR-exon 4n_reverse: (5'→3') […] [Identification of Exon Skipping Products] The PCR products were subjected to electrophoretic separation on a 2% agarose gel. The bands of target size were collected and analyzed by Sanger Sequencing.

10-mer complementary DNA = experiment: Tm between PNA derivatives and 10-mer complementary DNA (N- or C-terminal); format: binding; details: uncorrected
Summary of the method: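 4 μM 10-mer PNA with 4 μM complementary 10-mer DNA in pH 7.16 buffer (10 mM sodium phosphate, 100 mM NaCl) was heated at 90 °C for a minute, slowly cooled to ambient, then Tm measured by UV absorbance at 260 nm.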

TYR protein = experiment: TYR western blot in B16F10 cells; format: cell-based, mouse; details: 10 zM to 10 aM, 24 hours
Protocol: “TYR-ASO 4” was evaluated for its ability to inhibit the expression of TYR protein in B16F10 cells as described below.
B16F10 cells grown in 60 mm culture dish containing 5 mL culture medium were treated with “TYR-ASO 4” for 24 hours at 0 zM (negative control), 10 zM, 100 zM, 1 aM or 10 aM, and subjected to lysis with 200 μL 1× cell lysis buffer (Cat. No. 9803, Cell Signaling Tech) supplemented with 1× protease inhibitors cocktail (Cat. No. P8340, Sigma). 200 μL of each lysate was mixed with 100 μL 5× sample buffer, and boiled at 100° C. for 5 min. 20 μL of each lysate was subjected to electrophoretic separation on a 4-15% gradient TGX gel (Cat No. 456-1086, Bio-Rad), and protein transfer onto a 0.45 μm PVDF membrane. The membrane was probed with an anti-TYR antibody (Cat. No. 9319, Cell Signaling Tech) and an anti-3-actin antibody (Cat. No. a3845, Sigma).

full-length TYR mRNA [1] = experiment: TYR nested qPCR in B16F10 cells; format: cell-based, mouse; details: 1 to 1,000 aM
Protocol: [Cell Culture & ASO Treatment] B16F10 cells grown in 60 mm culture dish containing 5 mL culture medium were treated with “TYR-ASO 4” at 0 (negative control), 1, 10, 100 or 1000 aM. (2 culture dishes per dose)
[RNA Extraction & cDNA Synthesis by One-step PCR] Total RNA was extracted and subjected to cDNA synthesis as described in “TYR Example 1”.
[Nested qPCR Amplification]
[Statistical Analysis] The nested qPCR experiment was repeated independently four times, and individual mRNA levels from each experiment were normalized against the mRNA level without ASO treatment. The mRNA levels obtained from all the 4 separate experiments were pooled for statistical analysis by student's t-test. Thus the number of RNA samples is 8 per ASO concentration.

[2] = test system: melanogenesis in B16F10 cells; experiment: Melanin content (melanogenesis) in B16F10 cells; format: cell-based, mouse; details: 1 to 1,000 aM, 24 hours
Protocol: “TYR-ASO 4” was evaluated for its ability to inhibit the melanogenesis in B16F10 cells as described below.
B16F10 cells grown in 60 mm culture dish containing 5 mL culture medium were treated either with “TYR-ASO 4” at 0 (negative control) or 1 to 1,000 aM, or with 10 or 100 μg/mL arbutin as a positive control. (2 culture dishes per dose) 24 hours later, the cells were subjected to lysis with 200 μL 1N NaOH. Each lysate was collected in 1.5 mL e-tube, and kept overnight at room temperature. The melanin content in each lysate was determined by absorbance at 475 nm on an ELISA reader. The experiment was repeated four times using cells at different passage. The four sets of the melanin content data were pooled for statistical analysis by student's t-test against the melanin content without treatment (negative control).

full-length TYR mRNA [3] = experiment: TYR nested qPCR in human primary epidermal melanocytes; format: cell-based; details: 1 zM to 10 aM, 5 hours
Protocol: [Cell Culture & ASO Treatment] Primary epidermal melanocytes (Cat. Number PCS-200-013, ATCC) cells were maintained in Dermal Cell Basal Medium (Cat Number PCS-200-030, ATCC) supplemented with Adult Melanocyte Growth Kit Component (Cat. Number PCS-200-042, ATCC). Melanocytes grown in 60 mm culture dish containing 5 mL culture medium were treated with “TYR-ASO 1” at 0 zM (negative control), 1 zM, 100 zM, or 10 aM. (3 culture dishes per concentration) [RNA Extraction & cDNA Synthesis by One-step PCR] Following an incubation with “TYR-ASO 1” for 5 hours, total RNA was extracted using “RNeasy Mini Kit” (Cat. Number 74106, Qiagen) according to the manufacturer's instructions. […] NO: 147); and TYR-exon 5_reverse: (5'→3') […] [Nested PCR Amplification] […] NO: 149); and TYR-exon 3n_reverse: (5'→3') […] NO: 150)] against a Taqman probe [(5'→3') 5,6-[…] NO: 151)].

Fethoc-CA(5)A-A(5)TG-A(5)TC(1O2)-TG(6)T-G-NH2 (antisense CAAATGATCTGTG; chemistry not fully specified) [TYR-ASO 4]
TYR exon skipping by nested PCR (mouse TYR pre-mRNA): yielded essentially only the splice variant TYR mRNA lacking exons 2 and 3 | Tm Value, 10-mer DNA against C-Terminal (10-mer complementary DNA): 72.0 °C | Tm Value, 10-mer DNA against N-Terminal (10-mer complementary DNA): 72.0 °C | TYR protein level (western blot) (TYR protein): considerably higher in the lysates of the negative control | decrease of full-length TYR mRNA level (qPCR) (full-length TYR mRNA [1]): ~40% | decrease of melanin content [2]: ~15%

Fethoc-CA(5)G-ACA(5)-ATC(1O2)-TG(6)T-A(5)-NH2 (antisense CAGACAATCTGTA; chemistry not fully specified) [TYR-ASO 1]
decrease of full-length TYR mRNA level (qPCR) (full-length TYR mRNA [3]): ~30% | Tm Value, 10-mer DNA against C-Terminal (10-mer complementary DNA): 73.0 °C | Tm Value, 10-mer DNA against N-Terminal (10-mer complementary DNA): 78.0 °C
